SMILES strings stand for the structures.

Usually IC50 stands for the concentration that inhibits the measured activity by half.

Experiment [1] addresses T1, Recombinant purified human BTK (Homo sapiens, UniProt Q06187).
T1 construct: purchased Promega V9071
The experiment in a line: BTK kinase inhibitory activity, ADP-Glo kinase assay (Promega V9071). The class given is biochemical. The note with it: ATP 10 uM, 8 ng BTK per reaction, 1 hour 30 °C, chemiluminescence. As for the experimental part: (§1) JAK3 and BTK kinase inhibitory activities were measured for the compounds prepared in the above Examples through in vitro analysis on the ADP Glow (Glo) platform.
(§2) Specifically, the inhibitory activities of JAK3 and BTK kinase were measured using a JAK3 kinase assay kit (Promega, V9441) and a BTK kinase assay kit (Promega, V9071) which were purchased from Promega. Recombinant purified human JAK3 and BTK were diluted with 1 x kinase reaction buffer (JAK3: 40 mM Tris-Cl, pH 7.5, 20 mM MgCh, 0.1 mg/mL BSA and 50 uM DTT / BTK: 40 mM Tris-Cl, pH 7.5, 20 mM MgCl2, 0.1 mg/mL BSA, 2 mM MnCl2 and 50 uM DTT) and added to a 96 well plate (JAK3: final concentration of 4 ng per reaction/BTK: final concentration of 8 ng per reaction). The compounds were treated so as to be finally a 1% DMSO aqueous solution, and a substrate cocktail containing ATP (JAK3: final concentration of 5 uM / BTK: final concentration of 10 uM) and 0.2 µg/µL of Poly(Glu4, Tyr1) peptide (JAK3 and BTK final concentration) in the total 25 µL reactants was added to a 96-well plate to initiate enzymatic reaction. After incubation (30 °C) for 1 hour, equivalent volume (25 µL per reaction) of ADP Glo was added and incubated (30 °C) for 40 minutes at room temperature. Then, a kinase detection reagent (50 µL per reaction) was added and incubated (30 °C) for 30 minutes at room temperature. The kinase activity was measured by chemiluminescence according to the instructions of ADP Glo kinase assay kit, and the inhibitory activity of the compounds according to the present invention was calculated. For the analysis of the results of each compound, Microsoft Excel was used, and IC50 values were calculated by SigmaPlot software.
Background: In ADP-Glo the light output rises with the ADP produced.

For experiment [2], the target named is T2, Recombinant purified human JAK3 (Homo sapiens, UniProt P52333).
T2 construct: purchased Promega V9441
T2 sequence (P52333 1-1124): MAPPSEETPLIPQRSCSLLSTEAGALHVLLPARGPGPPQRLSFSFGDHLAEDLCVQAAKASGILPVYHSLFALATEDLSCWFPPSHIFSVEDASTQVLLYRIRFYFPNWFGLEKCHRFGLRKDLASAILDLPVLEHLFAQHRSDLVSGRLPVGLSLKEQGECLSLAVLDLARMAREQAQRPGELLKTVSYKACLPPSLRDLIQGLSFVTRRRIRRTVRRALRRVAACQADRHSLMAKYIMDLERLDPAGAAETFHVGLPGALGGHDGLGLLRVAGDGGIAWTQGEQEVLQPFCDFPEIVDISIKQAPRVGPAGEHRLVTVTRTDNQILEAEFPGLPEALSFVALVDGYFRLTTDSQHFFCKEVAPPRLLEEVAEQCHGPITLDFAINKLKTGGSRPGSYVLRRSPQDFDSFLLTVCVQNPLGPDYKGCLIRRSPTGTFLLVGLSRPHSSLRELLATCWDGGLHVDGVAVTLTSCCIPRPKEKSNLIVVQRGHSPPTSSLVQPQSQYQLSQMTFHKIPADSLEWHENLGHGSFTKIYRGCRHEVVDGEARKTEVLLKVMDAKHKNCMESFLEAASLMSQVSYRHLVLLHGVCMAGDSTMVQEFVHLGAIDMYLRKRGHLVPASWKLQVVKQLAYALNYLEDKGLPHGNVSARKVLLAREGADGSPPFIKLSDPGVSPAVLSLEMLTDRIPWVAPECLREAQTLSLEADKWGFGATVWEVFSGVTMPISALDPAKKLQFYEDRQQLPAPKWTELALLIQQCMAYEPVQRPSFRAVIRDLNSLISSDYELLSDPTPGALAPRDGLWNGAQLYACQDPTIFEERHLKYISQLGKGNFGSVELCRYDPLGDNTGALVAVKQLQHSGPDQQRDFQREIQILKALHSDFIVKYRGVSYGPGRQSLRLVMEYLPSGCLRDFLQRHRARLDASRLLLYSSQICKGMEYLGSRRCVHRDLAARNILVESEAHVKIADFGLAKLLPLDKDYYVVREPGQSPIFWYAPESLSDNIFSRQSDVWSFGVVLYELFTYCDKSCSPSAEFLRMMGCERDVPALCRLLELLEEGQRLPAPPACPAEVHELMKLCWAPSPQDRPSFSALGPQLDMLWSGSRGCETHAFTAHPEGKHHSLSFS
The experiment in a line: JAK3 kinase inhibitory activity, ADP-Glo kinase assay (Promega V9441). Format: biochemical. Conditions: ATP 5 uM, 4 ng JAK3 per reaction, 1 hour 30 °C, chemiluminescence. How it is done:
as §1, §2

T1 sequence (Q06187 whole entry): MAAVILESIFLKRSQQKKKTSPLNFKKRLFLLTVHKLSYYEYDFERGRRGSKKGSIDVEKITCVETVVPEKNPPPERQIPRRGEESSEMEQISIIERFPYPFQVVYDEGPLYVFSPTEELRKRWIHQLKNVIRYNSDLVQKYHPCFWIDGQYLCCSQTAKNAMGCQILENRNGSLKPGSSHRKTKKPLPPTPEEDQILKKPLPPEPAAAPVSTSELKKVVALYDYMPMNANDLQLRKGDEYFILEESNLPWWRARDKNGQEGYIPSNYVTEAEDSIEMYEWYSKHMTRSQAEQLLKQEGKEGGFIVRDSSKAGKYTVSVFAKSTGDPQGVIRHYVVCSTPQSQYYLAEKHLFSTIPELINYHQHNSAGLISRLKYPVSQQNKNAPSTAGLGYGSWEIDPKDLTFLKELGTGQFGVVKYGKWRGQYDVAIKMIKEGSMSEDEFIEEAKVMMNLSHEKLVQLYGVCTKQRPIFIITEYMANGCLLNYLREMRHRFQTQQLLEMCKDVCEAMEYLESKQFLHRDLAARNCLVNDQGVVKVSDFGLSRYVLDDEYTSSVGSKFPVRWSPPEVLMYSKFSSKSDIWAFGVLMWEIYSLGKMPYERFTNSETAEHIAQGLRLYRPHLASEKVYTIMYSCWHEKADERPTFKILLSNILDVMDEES

For the compound `C=CC(=O)N1CCC[C@@H](Nc2nc(Nc3cnn(C(F)F)c3)nc3[nH]cc(Cl)c23)C1` [Example 38, (R)-1-(3-(5-chloro-2-(1-(difluoromethyl)-1H-pyrazol-4-ylamino)-7H-pyrrolo[2,3-d]pyrimidin-4-ylamino)piperidin-1-yl)prop-2-en-1-one], the values for the IC50 in experiment [1] and in experiment [2] were 4.3 nM and 0.1 nM, respectively.
On the same counts, the results for `C=CC(=O)N1CCC[C@@H](Nc2nc(Nc3cnn(CC(F)F)c3)nc3[nH]cc(Cl)c23)C1` [Example 39, (R)-1-(3-(5-chloro-2-(1-(2,2-difluoroethyl)-1H-pyrazol-4-ylamino)-7H-pyrrolo[2,3-d]pyrimidin-4-ylamino)piperidin-1-yl)prop-2-en-1-one] are 1.9 nM and 0.1 nM.
For the compound `C=CC(=O)N1CCC[C@@H](Nc2nc(Nc3cnn(CCN4CCOCC4)c3)nc3[nH]cc(Cl)c23)C1` [Example 40, (R)-1-(3-(5-chloro-2-(1-(2-morpholinoethyl)-1H-pyrazol-4-ylamino)-7H-pyrrolo [2,3-d]pyrimidin-4-ylamino)piperidin-1-yl)prop-2-en-1-one], the IC50 in experiment [1] amounted to 1.8 nM; in experiment [2], 0.2 nM.
As for `C=CC(=O)N1CCC[C@@H](Nc2nc(Nc3cnn(Cc4cccc(OC)c4)c3)nc3[nH]cc(Cl)c23)C1` [Example 41, (R)-1-(3-(5-chloro-2-(1-(3-methoaybenzyl)-1H-pyrazol-4-ylamino)-7H-pyrrolo[2,3-d]pyrimidin-4-ylamino)piperidin-1-yl)prop-2-en-1-one], the IC50 in experiment [1] is 1.8 nM; in experiment [2] it was 0.5 nM.
In the case of `C=CC(=O)N1CCC[C@@H](Nc2nc(Nc3ccc(N4CCN(C)CC4)cc3)nc3[nH]nc(Cl)c23)C1` [Example 42], the IC50 in experiment [1] was found to be 3.2 nM; in experiment [2], 5.1 nM.
On the same counts, the results for `C=CC(=O)N1CCC[C@@H](Nc2nc(Nc3ccc(-n4nc(C)cc4C)cc3)nc3[nH]nc(Cl)c23)C1` [Example 43] are 6.7 nM and 9.9 nM.
On the same counts, the results for `C=CC(=O)N1CCC[C@@H](Nc2nc(Nc3cnn(CC(F)F)c3)nc3[nH]nc(Cl)c23)C1` [Example 44, (R)-1-(3-(3-chloro-6-(1-(2,2-difluoroethyl)-1H-pyrazol-4-ylamino)-1H-pyrazolo[3,4-d]pyrimidin-4-ylamino)piperidin-1-yl)prop-2-en-1-one] are 2.5 nM and 0.3 nM.
Regarding `C=CC(=O)N1CCC[C@@H](Nc2nc(Nc3cnn(C)c3)nc3[nH]nc(Cl)c23)C1` [Example 45, (R)-1-(3-(3-chloro-6-(1-methyl-1H-pyrazol-4-ylamino)-1H-pyrazolo [3,4-d]pyrimidin-4-ylamino)piperidin-1-yl)prop-2-en-1-one], the 50% inhibitory concentration (IC50) in experiment [1] was found to be 2.9 nM; in experiment [2] it was 0.7 nM.
On the same counts, the results for `C=CC(=O)N1CCC[C@@H](Nc2nc(Nc3cnn(CC(=O)NC)c3)nc3[nH]nc(Cl)c23)C1` [Example 47, (R)-2-(4-(4-(1-acryloylpiperidin-3-ylamino)-3-chloro-1H-pyrazolo[3,4-d]pyrimidin-6-ylamino)-1H-pyrazol-1-yl)-N-methylacetamide] are 5.2 nM and 1.1 nM.
On the same counts, the results for `C=CC(=O)N1CCC[C@@H](Nc2nc(Nc3cnn(C4CCOCC4)c3)nc3[nH]nc(Cl)c23)C1` [Example 48, (R)-1-(3-(3-chloro-6-(1-(tetrahydro-2H-pyran-4-yl)-1H-pyrazol-4-ylamino)-1H-pyrazolo[3,4-d]pyrimidin-4-ylamino)piperidin-1-yl)prop-2-en-1-one] are 0.9 nM and 0.4 nM.
Taken in the same sequence, the figures for `C=CC(=O)N1CCC[C@@H](Nc2nc(Nc3cnn(C4CC4)c3)nc3[nH]nc(Cl)c23)C1` [Example 49, (R)-1-(3-(3-chloro-6-(1-cyclopropyl-lH-pyrazol-4-ylamino)-1H-pyrazolo [3,4-d]pyrimidin-4-ylamino)piperidin-1-yl)prop-2-en-1-one] were 0.9 nM and 0.7 nM.
For `C=CC(=O)N1CCC[C@@H](Nc2nc(Nc3cnn(C(C)C)c3)nc3[nH]nc(Cl)c23)C1` [Example 50, (R)-1-(3-(3-chloro-6-(1-isopropyl-1H-pyrazol-4-ylamino)-1H-pyrazolo[3,4-d]pyrimidin-4-ylamino)piperidin-1-yl)prop-2-en-1-one], the IC50 in experiment [1] is 1.8 nM; in experiment [2] it was 0.8 nM.
On the same counts, the results for `C=CC(=O)N1CCC[C@@H](Nc2nc(Nc3cnn(CCC)c3)nc3[nH]nc(Cl)c23)C1` [Example 51, (R)-1-(3-(3-chloro-6-(1-propyl-lH-pyrazol-4-ylamino)-1H-pyrazolo [3,4-d]pyrimidin-4-ylamino)piperidin-1-yl)prop-2-en-1-one] are 1.8 nM and 0.8 nM.
On the same counts, the results for `C=CC(=O)N1CCC[C@@H](Nc2nc(Nc3cnn(CC#N)c3)nc3[nH]nc(Cl)c23)C1` [Example 52, (R)-2-(4-(4-(1-acryloylpiperidin-3-ylamino)-3-chloro-1H-pyrazolo[3,4-d]pyrimidin-6-ylamino)-1H-pyrazol-1-yl)acetonitrile] are 0.8 nM and 0.2 nM.
On the same counts, the results for `C=CC(=O)N1CCC[C@@H](Nc2nc(Nc3cnn(C(C)(C)C)c3)nc3[nH]nc(Cl)c23)C1` [Example 53, (R)-1-(3-(6-(1-tert-butyl-1H-pyrazol-4-ylamino)-3-chloro-1H-pyrazolo[3,4-d]pyrimidin-4-ylamino)piperidin-1-yl)prop-2-en-1-one] are 0.9 nM and 1 nM.
With `C=CC(=O)N1CCC[C@@H](Nc2nc(Nc3cnn(CCN4CCOCC4)c3)nc3[nH]nc(Cl)c23)C1` [Example 54, (R)-1-(3-(3-chloro-6-(1-(2-morpholinoethyl)-1H-pyrazol-4-ylamino)-1H-pyrazolo [3,4-d]pyrimidin-4-ylamino)piperidin-1-yl)prop-2-en-1-one], the IC50 in experiment [1] stood at 1.8 nM; in experiment [2] it was 0.7 nM.
On the same counts, the results for `C=CC(=O)N1CCC[C@@H](Nc2nc(Nc3cnn(CC(C)C)c3)nc3[nH]nc(Cl)c23)C1` [Example 55, (R)-1-(3-(3-chloro-6-(1-isobutyl-1H-pyrazol-4-ylamino)-1H-pyrazolo [3,4-d]pyrimidin-4-ylamino)piperidin-1-yl)prop-2-en-1-one] are 1.2 nM and 1.3 nM.
On the same counts, the results for `C=CC(=O)N1CCC[C@@H](Nc2nc(Nc3cnn(CC(F)(F)F)c3)nc3[nH]nc(Cl)c23)C1` [Example 56, (R)-1-(3-(3-chloro-6-(1-(2,2,2-trifluoroethyl)-1H-pyrazol-4-ylamino)-1H-pyrazolo[3,4-d]pyrimidin-4-ylamino)piperidin-1-yl)prop-2-en-1-one] are 1.8 nM and 0.3 nM.
On the same counts, the results for `C=CC(=O)N1CCC[C@@H](Nc2nc(Nc3cnn(CCN(CC)CC)c3)nc3[nH]nc(Cl)c23)C1` [Example 57, (R)-1-(3-(3-chloro-6-(1-(2-(diethylamino)ethyl)-1H-pyrazol-4-ylamino)-1H-pyrazolo [3,4-d]pyrimidin-4-ylamino)piperidin-1-yl)prop-2-en-1-one] are 1.8 nM and 0.4 nM.

For the origin of these results see patent EP3478687B1 (Daewoong Pharmaceutical Co., Ltd., priority 2016, dated 2018).
